Measurements taken from patent publication US8889709B2, “Use of isoQC inhibitors in the treatment and prevention of inflammatory diseases or conditions” (Probiodrug AG, priority 2006, dated 2014).
Like-named read-outs stand apart in the source and are kept apart here. One block for each compound: values may come before it. Peptide text beside a SMILES is read from it.

How the values were obtained:
[1] = system: Thioglycollate-induced peritonitis in C57/Bl6J mice; assay: Thioglycollate-induced peritonitis in C57/Bl6J wild type mice; format: in vivo, mouse
Protocol: C57/Bl6J mice were purchased from Charles River Laboratories (Kisslegg, Germany). For each experiment, the mice were age- and sex-matched. An intraperitoneal injection of 25 ml/kg body weight of sterile 8% (w/v) thioglycollate (Sigma-Aldrich) was used to induce peritonitis. 30 min before the thioglycollate-stimulus, animals were injected with different doses of isoQC-inhibitor isoQC-I. For lavage of the peritoneum, the animals were anesthetized using 2% isofluran. The peritoneal exudates were collected by washing the peritoneum with 8 ml of sterile PBS 4 h after thioglycollate injection. Cells of 1 ml lavage fluid were collected by centrifugation (300 g, 10 min) and stained according to the manufacturer's instructions for BD Trucount tubes (BD Trucount tubes; catalog no. 340334; BD Biosciences, Heidelberg, Germany). Cells were blocked with CD16/32 (Caltag) at 4° C. for 15 min. and stained with 7/4-FITC (Serotec, Dusseldorf, Germany)/Ly6G-PE (Miltenyi, Bergisch Gladbach, Germany) as well as IgG1-PE (BD)/IgG2a-FITC (Miltenyi) as isotype controls at room temperature for 15 min. After staining, erythrocytes were lysed with BD FACSLyse (BD) in the dark at room temperature for 15 min. After washing with PBS, flow cytometric analysis was performed on a BD FACSCalibur (BD) based on 5000 beads per sample as reference standard.

human isoQC [2] = molecular target: T1, human isoQC (Homo sapiens, UniProt Q9NXS2); assay: Inactivation of human isoQC by heterocyclic chelators; format: biochemical
Target sequence in this assay (Q9NXS2 whole entry): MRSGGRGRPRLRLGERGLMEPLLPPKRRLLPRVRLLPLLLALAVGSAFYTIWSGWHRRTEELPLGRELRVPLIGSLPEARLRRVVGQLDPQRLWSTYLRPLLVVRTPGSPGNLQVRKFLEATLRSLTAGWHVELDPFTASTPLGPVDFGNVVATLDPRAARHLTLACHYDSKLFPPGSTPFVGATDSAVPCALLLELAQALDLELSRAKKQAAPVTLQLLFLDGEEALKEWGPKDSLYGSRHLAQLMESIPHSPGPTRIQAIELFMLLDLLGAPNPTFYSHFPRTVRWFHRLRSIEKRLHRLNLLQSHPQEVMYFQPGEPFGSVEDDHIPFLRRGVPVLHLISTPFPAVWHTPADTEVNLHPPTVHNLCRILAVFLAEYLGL

mouse-isoQC [3] = molecular target: T2, mouse-isoQC (Mus musculus, UniProt Q8BH73, I74N); assay: Inactivation/reactivation of mouse-isoQC by chelators and metal ions; conditions: for reactivation of mouse-isoQC apoenzyme: metal added after removal of the chelator
T2 sequence (Q8BH73 61-383 I74N): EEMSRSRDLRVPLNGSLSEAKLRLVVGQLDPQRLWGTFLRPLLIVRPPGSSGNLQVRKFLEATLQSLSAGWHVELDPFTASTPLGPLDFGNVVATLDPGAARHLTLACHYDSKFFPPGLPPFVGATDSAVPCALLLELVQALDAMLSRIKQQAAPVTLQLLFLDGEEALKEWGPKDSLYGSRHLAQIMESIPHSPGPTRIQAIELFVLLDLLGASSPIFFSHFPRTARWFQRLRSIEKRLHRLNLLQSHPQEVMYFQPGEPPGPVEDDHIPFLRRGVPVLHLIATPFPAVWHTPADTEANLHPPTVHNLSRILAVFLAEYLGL
Protocol: The final dialysis was performed for 5 h. All buffers were prepared in metal-free polystyrene containers. Subsequently, the apoenzyme was centrifuged at 20.000×g for 1 h at 4° C., and the protein concentration was determined by UV absorbance.

human isoQC [4] = assay: Inhibitor assay, human isoQC (Ki/IC50, competitive inhibition); conditions: isoQC vs human QC
Protocol: (§4) All measurements were performed with a NovoStar reader for microplates (BMG Labtechnologies) at 30° C. […] Excitation/emission wavelengths were 320/410 nm.

human isoQC [5] = molecular target: T1, human isoQC; assay: as above
Protocol: as §4

human QC = human QC (Homo sapiens, UniProt Q16769); assay: Inhibitor assay, human QC (Ki/IC50, competitive inhibition)
human QC, sequence (Q16769 29-361): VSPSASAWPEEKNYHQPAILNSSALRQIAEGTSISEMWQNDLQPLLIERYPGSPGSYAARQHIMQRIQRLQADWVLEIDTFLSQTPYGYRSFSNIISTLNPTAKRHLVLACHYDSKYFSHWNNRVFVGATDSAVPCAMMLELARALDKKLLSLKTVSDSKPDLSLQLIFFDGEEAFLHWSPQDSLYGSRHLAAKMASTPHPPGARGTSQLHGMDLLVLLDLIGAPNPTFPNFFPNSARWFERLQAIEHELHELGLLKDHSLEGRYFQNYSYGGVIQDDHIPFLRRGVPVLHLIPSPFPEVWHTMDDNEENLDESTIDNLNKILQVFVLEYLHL
Protocol: as §4

human isoQC [6] = molecular target: T3, human isoQC (Homo sapiens, UniProt Q9NXS2, C369A/I73N); assay: Inhibitor assay, human isoQC (Ki/IC50, competitive inhibition)
T3 sequence (Q9NXS2 48-382 I73N/C369A): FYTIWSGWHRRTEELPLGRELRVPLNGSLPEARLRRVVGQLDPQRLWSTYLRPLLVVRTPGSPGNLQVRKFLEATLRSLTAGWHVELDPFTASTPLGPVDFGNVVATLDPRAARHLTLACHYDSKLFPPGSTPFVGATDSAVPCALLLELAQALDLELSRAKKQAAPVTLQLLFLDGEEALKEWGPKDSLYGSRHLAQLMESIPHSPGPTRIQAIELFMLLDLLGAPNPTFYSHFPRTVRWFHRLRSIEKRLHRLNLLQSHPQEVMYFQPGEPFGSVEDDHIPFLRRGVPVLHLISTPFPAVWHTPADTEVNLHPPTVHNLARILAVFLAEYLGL
Protocol: as §4

human isoQC [7] = molecular target: T1, human isoQC; assay: Kinetic evaluation of peptide substrates of human isoQC; format: biochemical; design: The cDNA of the mature human isoQC starting with codon 30 (counting from methionine II); His6 (C-His) (C); yeast alpha-factor secretion signal (YSS) (N); made in house; host or cells: Pichia pastoris X-33; conditions: human isoQC expressed in E. coli BL21 (hisoQCdt)
Protocol: (§1) Excitation/emission wavelengths were 320/410 nm.
(§2) Excitation/emission wavelengths were 380/460 nm.
(§3) Kinetic data were evaluated using GraFit software.
Target sequence in this assay (Q9NXS2 48-382): as the sequence (Q9NXS2 48-382 I73N/C369A) above, with N26I, A322C counted along it

human isoQC [8] = molecular target: T3, human isoQC; assay: as above; format: biochemical; design: The cDNA of the mature human isoQC starting with codon 30 (counting from methionine II); His6 (C-His) (C); yeast alpha-factor secretion signal (YSS) (N); made in house; host or cells: Pichia pastoris X-33; conditions: human isoQC expressed in P. pastoris (YSShisoQC)
Protocol: as §1, §2, §3

mouse-isoQC [9] = molecular target: T2, mouse-isoQC; assay: Kinetic parameters of conversion of peptide substrates by murine isoQC; format: biochemical; design: starting with codon 43 (Glu 43) of the open reading frame (counting from methionine II); yeast alpha-factor secretion signal (N); made in house; host or cells: Pichia pastoris X-33
Protocol: as §1, §2, §3

Compound: CCCOc1ccc(C2C(=O)NC(=O)N2c2ccc3[nH]cnc3c2)cc1 (racemic) [Example 6, 1-(1H-benzo[d]imidazol-5-yl)-5-(4-propoxyphenyl)imidazolidine-2,4-dione]
infiltrating monocytes in the peritoneum (FACS) ([1]; 6 mg/kg ip): reduction
infiltrating monocytes in the peritoneum (FACS) ([1]; 18 mg/kg ip): reduced the infiltration of monocytes down to baseline values
pGlu-MCP-1 in lavage fluid ([1]; FIG. 25b, different doses): reduction of pGlu-content
infiltrating monocytes in the peritoneum (FACS) ([1]; different doses ip 30 min before thioglycollate, lavage 4 h after): dose-dependent reduction

Compound: COc1ccc(NC(=S)NCCCn2ccnc2)cc1OC.Cl [1-(3-(1H-imidazol-1-yl)propyl)-3-(3,4-dimethoxyphenyl)thiourea hydrochloride]
drop in Ki, human isoQC compared with human QC (human isoQC [4]): 10 fold
Ki (human isoQC [5]): 480 ± 30 nM
Ki (human isoQC [5]; read-out: Ki-value, inhibition of human isoQC-catalyzed conversion of H-Gln-AMC into pGlu-AMC, FIG. 1, Michaelis-Menten model, linear competitive inhibition, inhibitor 0-5 μM): 240 nM

Compound: Cn1ccnc1 [1-Methylimidazole]
Ki (human QC): 39.7 ± 0.2 µM
Ki (human isoQC [5]): 80000 ± 5000 nM
Ki (human isoQC [6]): 82000 ± 3000 nM

Compound: c1ccc2[nH]cnc2c1 [Benzimidazole]
Ki (human QC; read-out: Ki (μM) hQC, competitive inhibition): 138 ± 4 µM
Ki (human isoQC [5]): 200000 ± 8000 nM
Ki (human isoQC [6]): 250000 ± 5000 nM

Compound: O=C(O)CN(CCN(CC(=O)O)CC(=O)O)CC(=O)O [EDTA]
inactivation of human isoQC (human isoQC [2]): inactivated

Compound: O=C1NC(=O)N(c2ccc3[nH]cnc3c2)C1c1ccccc1 (centres unmarked) [Example 2, 1-(1H-benzo[d]imidazol-5-yl)-5-phenylimidazolidine-2,4-dione]
IC50 (human isoQC [6]): 29.6 nM
Ki (human isoQC [6]): 16.4 nM

Compound: O=C1NC(=O)N(c2ccc3[nH]cnc3c2)C1c1ccccc1Cl (centres unmarked) [Example 14, 1-(1H-benzo[d]imidazol-5-yl)-5-(2-chlorophenyl)imidazolidine-2,4-dione]
IC50 (human isoQC [6]): 40 nM
Ki (human isoQC [6]): 3.07 nM

Compound: O=C1NC(=O)N(c2ccc3[nH]cnc3c2)C1c1ccc(F)cc1 (centres unmarked) [Example 15, 1-(1H-benzo[d]imidazol-5-yl)-5-(4-fluorophenyl)imidazolidine-2,4-dione]
IC50 (human isoQC [6]): 60 nM
Ki (human isoQC [6]): 12.3 nM

Compound: O=C1NC(=O)C2(Cc3ccccc3C2)N1c1ccc2[nH]cnc2c1 [Example 32, 3-(1H-benzimidazol-5-yl)-1′,3′-dihydro-2H,5H-spiro[imidazolidine-4,2′-indene]-2,5-dione]
IC50 (human isoQC [6]): 166 nM
Ki (human isoQC [6]): 40.9 nM

Compound: O=C1NC(=S)C(c2ccc(Cl)cc2)N1c1ccc2[nH]cnc2c1 (centres unmarked) [Example 40, 1-(1H-benzo[d]imidazol-5-yl)-5-(4-chlorophenyl)-4-thioxoimidazolidin-2-one]
IC50 (human isoQC [6]): 58.3 nM
Ki (human isoQC [6]): 11.4 nM

Compound: O=C1NC(=S)C(c2ccc(F)c(F)c2F)N1c1ccc2nc[nH]c2c1 (centres unmarked) [Example 41, 1-(1H-benzo[d]imidazol-5-yl)-5-(2,3,4-trifluorophenyl)-4-thioxoimidazolidin-2-one]
IC50 (human isoQC [6]): 163 nM
Ki (human isoQC [6]): 34.5 nM

Compound: Cc1cc(=O)oc2cc(NC(=O)[C@@H](N)CCC(N)=O)ccc12 [Q-AMC, H-Gln-AMC]
Km (human isoQC [7]): 0.01 ± 0.0009 mM
kcat (s^−1) hisoQCdt (human isoQC [7]): 1.07 ± 0.03 s⁻¹
Km (human isoQC [8]): 0.03 ± 0.0064 mM
kcat (s^−1) YSShisQC (human isoQC [8]): 3.72 ± 0.44 s⁻¹
Km (mouse-isoQC [9]): 0.022 ± 0.001 mM
kcat (s^−1) m-isoQC (mouse-isoQC [9]): 6.98 ± 0.35 s⁻¹

Compound: NC(=O)CC[C@H](N)C(=O)Nc1ccc2ccccc2c1 [Q-βNA, H-Gln-βNA]
Km (human isoQC [7]): 0.03 ± 0.002 mM
kcat (s^−1) hisoQCdt (human isoQC [7]): 3.37 ± 0.12 s⁻¹
Km (human isoQC [8]): 0.035 ± 0.0005 mM
kcat (s^−1) YSShisQC (human isoQC [8]): 8.16 ± 0.87 s⁻¹
Km (mouse-isoQC [9]): 0.032 ± 0.003 mM
kcat (s^−1) m-isoQC (mouse-isoQC [9]): 17.48 ± 0.97 s⁻¹

Compound: C[C@H](NC(=O)[C@H](Cc1ccccc1)NC(=O)[C@@H](N)CCC(N)=O)C(=O)O [QFA] (H-Gln-Phe-Ala-OH)
Km (human isoQC [7]): 0.11 ± 0.016 mM
Km (human isoQC [8]): 0.104 ± 0.025 mM

Compound: NC(=O)CC[C@H](NC(=O)[C@@H](N)CCC(N)=O)C(=O)O [QQ] (H-Gln-Gln-OH)
Km (human isoQC [7]): 0.11 ± 0.027 mM
Km (human isoQC [8]): 0.11 ± 0.007 mM

Compound: O=C(O)c1cccc(C(=O)O)n1 [dipicolinic acid]
inactivation of human isoQC (human isoQC [2]): inactivated

Compound: calcium
reactivation of mouse-isoQC apoenzyme (mouse-isoQC [3]): No reactivation

Compound: manganese
reactivation of mouse-isoQC apoenzyme (mouse-isoQC [3]): No reactivation

More lines, now with the values ahead:

inactivation of human isoQC (human isoQC [2]): inactivated
inactivation of mouse-isoQC (mouse-isoQC [3]; dialysis against buffer containing 5 mM 1,10-phenantrolin and 5 mM EDTA): inactivation
Compound: c1cnc2c(c1)ccc1cccnc12 [1,10-phenantroline]

IC50 (human isoQC [6]): 3.3 nM
Ki (human isoQC [6]): 1.62 nM
Compound: O=C1NC(=O)N(c2ccc3[nH]cnc3c2)C1c1ccc2nsnc2c1 (centres unmarked) [Example 1, 5-(benzo[c][1,2,5]thiadiazol-6-yl)-1-(1H-benzo[d]imidazol-5-yl)imidazolidine-2,4-dione]

IC50 (human isoQC [6]): 150 nM
Ki (human isoQC [6]): 25.8 nM
Compound: O=C1NC(=O)N(c2ccc3[nH]cnc3c2)C1c1cc(C(F)(F)F)ccc1F (centres unmarked) [Example 4, 1-(1H-benzo[d]imidazol-5-yl)-5-(2-fluoro-5-(trifluoromethyl)phenyl)imidazolidine-2,4-dione]

IC50 (human isoQC [6]): 66 nM
Ki (human isoQC [6]): 8.27 nM
Compound: O=C1NC(=O)N(c2ccc3[nH]cnc3c2)C1c1cc(F)ccc1Br (centres unmarked) [Example 5, 1-(1H-benzo[d]imidazol-5-yl)-5-(2-bromo-5-fluorophenyl)imidazolidine-2,4-dione]

IC50 (human isoQC [6]): 1400 nM
Ki (human isoQC [6]): 35.2 nM
Compound: O=C1NC(=O)N(c2ccc3[nH]cnc3c2)C1c1ccc(Cl)c(C(F)(F)F)c1 (centres unmarked) [Example 7, 1-(1H-benzo[d]imidazol-5-yl)-5-(4-chloro-3-(trifluoromethyl)phenyl)imidazolidine-2,4-dione]

IC50 (human isoQC [6]): 30.3 nM
Ki (human isoQC [6]): 2.66 nM
Compound: COc1ccc(C2C(=O)NC(=O)N2c2ccc3[nH]cnc3c2)cc1O (centres unmarked) [Example 9, 1-(1H-benzo[d]imidazol-5-yl)-5-(3-hydroxy-4-methoxyphenyl)imidazolidine-2,4-dione]

IC50 (human isoQC [6]): 58 nM
Ki (human isoQC [6]): 10.5 nM
Compound: O=C1NC(=O)N(c2ccc3[nH]cnc3c2)C1c1cccc(Cl)c1 (centres unmarked) [Example 12, 1-(1H-benzo[d]imidazol-5-yl)-5-(3-chlorophenyl)imidazolidine-2,4-dione]

IC50 (human isoQC [6]): 52 nM
Ki (human isoQC [6]): 6.71 nM
Compound: O=C1NC(=O)N(c2ccc3[nH]cnc3c2)C1c1ccc(Cl)cc1 (centres unmarked) [Example 13, 1-(1H-benzo[d]imidazol-5-yl)-5-(4-chlorophenyl)imidazolidine-2,4-dione]

IC50 (human isoQC [6]): 57.6 nM
Ki (human isoQC [6]): 4.14 nM
Compound: O=C1NC(=O)N(c2ccc3[nH]cnc3c2)C1c1ccc2c(c1)OCCO2 (centres unmarked) [Example 16, 1-(1H-benzo[d]imidazol-5-yl)-5-(2,3-dihydrobenzo[b][1,4]dioxin-7-yl)imidazolidine-2,4-dione]

Km (human isoQC [7]): 0.63 ± 0.052 mM
Km (human isoQC [8]): 0.16 ± 0.01 mM
Compound: CC(C)C[C@H](NC(=O)[C@H](CC(=O)O)NC(=O)[C@H](CCC(=O)O)NC(=O)[C@@H](N)CCC(N)=O)C(=O)O [QEDL] (H-QEDL-OH)

Km (human isoQC [7]): 0.7 ± 0.13 mM
Km (human isoQC [8]): 0.61 ± 0.064 mM
Compound: NC(=O)CC[C@H](N)C(=O)N[C@@H](CCC(=O)O)C(=O)O [QE] (H-Gln-Glu-OH)

Km (human isoQC [7]): 0.42 ± 0.04 mM
Km (human isoQC [8]): 0.36 ± 0.047 mM
Km (mouse-isoQC [9]): 0.16 ± 0.01 mM
Compound: NC(=O)CC[C@H](N)C(=O)NCC(=O)O [QG] (H-Gln-Gly-OH)

reactivation of mouse-isoQC apoenzyme (mouse-isoQC [3]): complete reactivation
Compound: O=S(=O)([O-])[O-].[Zn+2] [ZnSO4]
